The subject of assay [1] is Bax, Bcl-xL, p21, p53 protein expression in MDA-MB-231 cells. Nature of the assay: Western blot analysis of protein expression levels. It is filed as cell-based, human. The conditions noted are these: 16 µM, 48 h. The method, then:
Once compound 7 induced cancer cell death by apoptosis, we next explored the molecular pathways involved in its apoptotic effect. For that, some apoptotic-related proteins were checked in MDA-MB-231 cells treated with 16 µM of compound 7 for 48 h (Figure 2E,F).
MDA-MB-231 cells were seeded in 6-well plates at a density of 1.5 × 10^5 cells/well for 24 h, followed by treatment with 16 µM of compound 7. Protein extracts were quantified using the Bradford reagent (Sigma-Aldrich). Proteins were run in SDS-PAGE and transferred to a Whatman nitrocellulose membrane from Protan (VWR, Carnaxide, Portugal). After blocking, proteins were identified using specific primary antibodies: rabbit polyclonal anti-p21 (Santa Cruz Biotechnology, Dallas, […], USA), rabbit polyclonal anti-Bax, and rabbit monoclonal anti-Bcl-xL (Invitrogen, Waltham, MA, USA), followed by the respective anti-mouse/anti-rabbit HRP-conjugated secondary antibodies (Santa Cruz Biotechnology). GAPDH was used as a loading control. The signal was detected with the ECL Amersham kit from GE Healthcare (VWR, Carnaxide, Portugal). Two detection methods were used: the Kodak GBX developer and fixer (Sigma-Aldrich) or the ChemiDoc™ XRS Imaging System from Bio-Rad Laboratories (Amadora, Portugal).

Assay [2] relates to breast cancer cell lines (MDA-MB-231, MDA-MB-468, MCF-7). Nature of the assay: Sulforhodamine B assay, all breast cancer cell lines. It is filed as cell-based. The conditions noted are these: Homo sapiens; range over the four alkaloids and MDA-MB-231, MDA-MB-468, MCF-7; read-out: IC50 values against all breast cancer cell lines. The method, then:
Aiming to find Amaryllidaceae alkaloids against breast cancer, including the highly aggressive triple-negative breast cancer, the phytochemical study of Pancratium maritimum was carried out. Several Amaryllidaceae-type alkaloids, bearing scaffolds of the haemanthamine-, homolycorine-, lycorine-, galanthamine-, and tazettine-type were isolated (3–11), along with one alkamide (2) and a phenolic compound (1). The antiproliferative effect of compounds (1–11) was evaluated by the sulforhodamine B assay against triple-negative breast cancer cell lines MDA-MB-231 and MDA-MB-468, breast cancer cells MCF-7, and the non-malignant fibroblast (HFF-1) and breast (MCF12A) cell lines. […] The homolycorine-type alkaloid 7 was selected for further investigation in MDA-MB-231 cells. In the annexin-V assay, compound 7 increased cell death by apoptosis, which was substantiated, in western blot analyses, by the increased expression of the pro-apoptotic protein Bax, and the decreased expression of the anti-apoptotic protein Bcl-xL. Consistently, it further stimulated mitochondrial reactive oxygen species (ROS) generation. The antiproliferative effect of compound 7 was also associated with G2/M cell cycle arrest, which was supported by an increase in the p21 protein expression levels.
(§1) Human cell lines were seeded in 96-well plates at a density of 5.0 × 10^3 (MDA-MB-231, MCF-7, HFF-1, and MCF12A) and 7.5 × 10^3 (MDA-MB-468) cells/well and allowed to adhere for 24 h. Cells were treated with serial dilutions of compounds (ranging from 0.1 to 40 μM) for an additional 48 h. Effect on cell proliferation was measured by sulforhodamine B assay, as described in [33], and the half-maximal inhibitory concentration (IC50) was then determined for each cell line using the GraphPad Prism software version 7.0 (La Jolla, CA, USA).

For the next assay, the system named is HFF-1 cells. Nature of the assay: Sulforhodamine B antiproliferative assay, non-tumorigenic fibroblast HFF-1. To be noted: Homo sapiens, 48 h of treatment, read-out: IC50 HFF-1 (E). It is filed as cell-based. The method, then:
(§2) The antiproliferative effect of the isolated compounds (1–11) was investigated by the sulforhodamine B assay against human triple-negative breast cancer cell lines (MDA-MB-468 and MDA-MB-231) and breast ductal carcinoma cells (MCF-7) and the non-tumorigenic fibroblast (HFF-1) and breast cell lines (MCF12A). The IC50 values were determined after 48 h of treatment (Table 1).
(§3) Human breast adenocarcinoma MDA-MB-231, MDA-MB-468, and MCF-7 cell lines and non-tumorigenic foreskin fibroblast (HFF-1) and breast (MCF12A) cell lines were purchased from American Type Culture Collection (ATCC, Rockville, MD, USA). All cancer cell lines, except MCF12A, were routinely cultured in RPMI-1640 medium with glutamine from Corning (VWR, Carnaxide, Portugal) supplemented with 10% fetal bovine serum (FBS) from Biowest (Labclinics, Barcelona, Spain). MCF12A cells were cultured in a 1:1 mixture of Dulbecco’s modified Eagle’s medium and Ham’s F12 medium, 20 ng/mL human epidermal growth factor, 100 ng/mL cholera toxin, 0.01 mg/mL bovine insulin, and 500 ng/mL hydrocortisone and supplemented with 10% FBS. All cells were maintained in a humidified incubator at 37 °C with 5% CO2. All cells were routinely tested for mycoplasma contamination using the MycoAlertTM PLUS detection kit (Lonza, Basel, Switzerland).
as §1

For the next assay, the system named is MDA-MB-468 cells. Nature of the assay: Sulforhodamine B antiproliferative assay, MDA-MB-468. It is filed as cell-based, human. The method, then: as §2, §3, §1

Regarding `COc1cc2c(cc1O)C(=O)OC1[C@@H](O)C=C3CCN(C)C3[C@]21O` (stereo partly drawn) [Compound 7, 2α-10bα-dihydroxy-9-O-demethylhomolycorine], in assay [1] (MDA-MB-231), the Bax protein levels entry is “increased levels”, the Bcl-xL protein levels entry is given as “reduced levels” and the p21 protein levels result was “increased the p21 protein levels”. The “p53 protein expression levels” value in assay [1] (MDA-MB-231, data not shown) is recorded as “did not interfere”. In assay [2], the IC50 lay within 0.73 to 16.3 µM. Besides, the IC50 in the assay on HFF-1 cells is 13.3 ± 3.28 µM. Moreover, the IC50 with MDA-MB-468 cells (Homo sapiens, MDA-MB-468, 48 h, sulforhodamine B assay, 48 h of treatment) turned out to be 16.3 ± 1.3 µM. For the same compound, the “SI E/B” value in the assay with MDA-MB-468 cells (selectivity index, HFF-1 vs MDA-MB-468) is 0.81. The “SI D/B” value in the assay with MDA-MB-468 cells (selectivity index, MCF12A vs MDA-MB-468) amounted to 0.34.

Values taken from paper PMC9501014, “Amaryllidaceae-Type Alkaloids from Pancratium maritimum: Apoptosis-Inducing Effect and Cell Cycle Arrest on Triple-Negative Breast Cancer Cells” (Molecules, 2022).
